# Assays:
# [1] = Stability test of human liver microsomes; assay type: in vitro ADME; details: 1 μM compound, 500 μg/ml human liver microsomes, NADPH regeneration system, 37° C.; read-out: Liver microsomal stability T1/2, Human
# Description: (§1) After the 1 μM compound was incubated with 500 μg/ml of human or mouse liver microsomes and a NADPH regeneration system at 37° C. for different times, respectively, LC-MS-MS was used to analyze the remaining amount of the compound and calculate T1/2.
# [2] = Stability test of mouse liver microsomes; assay type: in vitro ADME; details: 1 μM compound, 500 μg/ml mouse liver microsomes, NADPH regeneration system, 37° C.; read-out: Liver microsomal stability T1/2, Mouse
# Description: as §1
# IDH1 R132C = target: T1, IDH1 R132C (Homo sapiens, UniProt O75874, R132C); assay: Detection of 2-HG in supernatant of HT1080 cells carrying IDH1 R132C; assay type: cell-based; details: 72 h, LC-MS-MS
# T1 construct: endogenous in cells; host or cells: HT1080
# Description: (§2) U87MG cells overexpressing the mIDH1 R132H mutation or HT1080 cells carrying IDH1 R132C were seeded in a 48-well plate and a 96-well plate at 50,000 cells/well and 10,000 cells/well, respectively. After the cells were incubated overnight for adhesion, the supernatants were removed. The cell culture media containing serially diluted compounds were added, and the cells were incubated for 72 h. After 72 h, the culture media were collected and diluted 10-fold and 20-fold with water, respectively. Acetonitrile was added to extract the metabolites. The 2-HG content in the culture media was analyzed by LC-MS-MS. The percentage inhibition and IC50 of the compounds on 2-HG in the supernatant were calculated as compared with the control group.
# mIDH1 R132H = target: T2, mIDH1 R132H (Homo sapiens, UniProt O75874, R132H); assay: Detection of 2-HG in supernatant of U87-IDH1 R132H cells; assay type: cell-based; details: U-87 MG, 72 h, U87MG cells overexpressing mIDH1 R132H, LC-MS-MS; for inhibition at 0.001 µM: 1 nM compound, read-out: Inhibition rate on 2-HG in the supernatant of U87-IDH R132H cells, 1 nM; for inhibition at 0.01 µM: 10 nM compound, read-out: Inhibition rate on 2-HG in the supernatant of U87-IDH R132H cells, 10 nM; for inhibition at 0.1 µM: 100 nM compound, read-out: Inhibition rate on 2-HG in the supernatant of U87-IDH R132H cells, 100 nM
# T2 construct: expressed in transfected cells; host or cells: U87MG
# Description: as §2
# T2 sequence (O75874 whole entry R132H): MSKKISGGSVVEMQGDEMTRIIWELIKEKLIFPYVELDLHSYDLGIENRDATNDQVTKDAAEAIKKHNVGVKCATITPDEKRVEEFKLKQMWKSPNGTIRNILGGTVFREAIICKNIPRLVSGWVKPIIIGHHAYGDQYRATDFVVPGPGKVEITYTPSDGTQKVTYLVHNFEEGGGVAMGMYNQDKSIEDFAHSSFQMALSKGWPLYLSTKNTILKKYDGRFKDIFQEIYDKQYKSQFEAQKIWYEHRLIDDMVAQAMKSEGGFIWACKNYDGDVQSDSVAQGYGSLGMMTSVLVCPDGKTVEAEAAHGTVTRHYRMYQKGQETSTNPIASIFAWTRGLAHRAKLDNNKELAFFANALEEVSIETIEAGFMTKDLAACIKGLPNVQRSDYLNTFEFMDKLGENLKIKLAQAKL
# T1 sequence (O75874 whole entry R132C): as the sequence (O75874 whole entry R132H) above, with H132C counted along it
half-life at 1 μM [1] [min],half-life at 1 μM [2] [min],IC50 (IDH1 R132C) [nM],inhibition at 0.001 µM (mIDH1 R132H) [%],inhibition at 0.01 µM (mIDH1 R132H) [%],inhibition at 0.1 µM (mIDH1 R132H) [%],SMILES
4.4,3.9,3.22,–,–,–,C=CC(=O)N1CCN(C(CC2CC2)c2ccc(C(C)Nc3ncc4[nH]c(=O)n(C5CCCC5)c4n3)cc2)CC1 (stereo not drawn) [Compound 6-1]
1.8,1.6,1.9,30 to 60,> 90,> 90,"C=CC(=O)N1CCN([C@@H](CC2CC2)c2ccc([C@H](C)Nc3ncc4c(n3)N(CC)C(=O)OC4)cc2)CC1 [LY-3410738, reference compound]"
–,–,11.5,–,–,–,C=CC(=O)N1CCN([C@@H](CC2CC2)c2ccc([C@H](C)Nc3ncc4[nH]c(=O)n(C5CC5)c4n3)cc2)CC1 [Compound 4-1]

# Second part, the molecule before the results:
SMILES,half-life at 1 μM [1] [min],half-life at 1 μM [2] [min],IC50 (IDH1 R132C) [nM],inhibition at 0.001 µM (mIDH1 R132H) [%],inhibition at 0.01 µM (mIDH1 R132H) [%],inhibition at 0.1 µM (mIDH1 R132H) [%]
C=CC(=O)N1CCN([C@@H](CC2CC2)c2ccc([C@H](C)Nc3ncc4[nH]c(=O)n(C(C)C)c4n3)cc2)CC1 [Compound 3-1],5,4,1.22,–,–,–
C=CC(=O)N1CCN([C@@H](CC2CC2)c2ccc([C@H](C)Nc3ncc4[nH]c(=O)n(CC)c4n3)cc2)CC1 [Compound 1-1],11.3,4.4,2.24,–,–,–
"C=CC(=O)N1CCN(C(CC2CC2)c2ccc([C@H](C)Nc3ncc4[nH]c(=O)n(CC)c4n3)cc2)CC1 (stereo partly drawn) [Compound 1, 2-(((1S)-1-(4-(1-(4-acryloylpiperazin-1-yl)-2-cyclopropylethyl)phenyl)ethyl)amino)-9-ethyl-7,9-dihydro-8H-purin-8-one]",–,–,4.48,60 to 90,> 90,> 90
C=CC(=O)N1CCN(C(CC2CC2)c2ccc([C@H](C)Nc3ncc4[nH]c(=O)n(C(C)C)c4n3)cc2)CC1 (stereo partly drawn) [Compound 3],–,–,2.06,30 to 60,> 90,> 90

# From patent publication US20240208978A1, “IDH MUTANT INHIBITOR AND USE THEREOF” (WIGEN BIOMEDICINE TECHNOLOGY (SHANGHAI) CO., LTD., priority 2021, published 2024)
